Converted amounts (≈) assume the structure as drawn. Positions of bridges follow the written chain, without caps; N, C: chain ends. Non-standard residues stand in square brackets, D forms with d. Residues, ends and D or L forms follow the SMILES beside them. S5 = C=CCCC[C@](C)(N)C(=O)O
Columns and labels:
Assay type in all cases: functional
Staphylococcus aureus [1] = assay: Antibacterial activity against Staphylococcus aureus […] assessed as inhibition of bacterial growth incubated for 24 hrs by broth dilution assay
Acinetobacter baumannii [2] = assay: Antibacterial activity against Acinetobacter baumannii ATCC 19606 assessed as inhibition of bacterial growth incubated for 24 hrs by broth dilution assay
Staphylococcus aureus [3] = assay: Antibacterial activity against Methicillin-resistant Staphylococcus aureus ATCC 43300 assessed as inhibition of bacterial growth incubated for 24 hrs by broth dilution assay
Acinetobacter baumannii [4] = assay: Antibacterial activity against multidrug-resistant Acinetobacter baumannii assessed as inhibition of bacterial growth incubated for 24 hrs by broth dilution assay

Molecule | MIC (Staphylococcus aureus [1]) | MIC (Acinetobacter baumannii [2]) | MIC (Staphylococcus aureus [3]) | MIC (Acinetobacter baumannii [4])
H-KRIVKRIKDFLR-OH | > 320 µg/mL | 160 µg/mL | > 320 µg/mL | 80 µg/mL
CC[C@H](C)[C@H](NC(=O)[C@H](CCCNC(=N)N)NC(=O)[C@@H](N)CCCCN)C(=O)N[C@H](C(=O)N[C@@H](CCCNC(=N)N)C(=O)N[C@@]1(C)CCC/C=C/CCC[C@@](C)(C(=O)N[C@@H](CC(C)C)C(=O)N[C@@H](CCCNC(=N)N)C(=O)O)NC(=O)[C@H]([C@@H](C)CC)NC(=O)[C@H](CCCCN)NC(=O)[C@H]([C@@H](C)CC)NC1=O)C(C)C (H-KRIVR[S5]IKI[S5]LR-OH; staple (E) 6-10) | 80 µg/mL (≈ 51.8 µM) | 10 µg/mL (≈ 6.47 µM) | 80 µg/mL (≈ 51.8 µM) | 10 µg/mL (≈ 6.47 µM)
H-KRIVRRIKRFLR-OH | > 320 µg/mL | 320 µg/mL | > 320 µg/mL | 320 µg/mL
CC[C@H](C)[C@@H]1NC(=O)[C@H](CCCNC(=N)N)NC(=O)[C@H](CCCNC(=N)N)NC(=O)[C@@](C)(NC(=O)[C@@H](NC(=O)[C@H](CCCNC(=N)N)NC(=O)[C@@H](N)CCCCN)[C@@H](C)CC)CCC/C=C\CCC[C@@](C)(C(=O)N[C@@H](CCCNC(=N)N)C(=O)O)NC(=O)[C@H](Cc2ccccc2)NC(=O)[C@H]([C@@H](C)CC)NC(=O)[C@H](CCCCN)NC1=O (H-KRI[S5]RRIKIF[S5]R-OH; staple (Z) 4-11) | > 320 µg/mL | > 320 µg/mL | > 320 µg/mL | > 320 µg/mL
H-KRIVIRIKRFLR-OH | 160 µg/mL | 20 µg/mL | 80 µg/mL | 10 µg/mL
H-KRIVQRIKIFLR-OH | 160 µg/mL | 40 µg/mL | > 320 µg/mL | 20 µg/mL
O=C(O)c1cn(C2CC2)c2cc(N3CCNCC3)c(F)cc2c1=O [CIPROFLOXACIN] | 2.5 µg/mL (≈ 7.54 µM) | 2.5 µg/mL (≈ 7.54 µM) | 160 µg/mL (≈ 483 µM) | 320 µg/mL (≈ 966 µM)
CC[C@H](C)[C@@H]1NC(=O)[C@H](CCCNC(=N)N)NC(=O)[C@@](C)(NC(=O)[C@@H](NC(=O)[C@@H](NC(=O)[C@H](CCCNC(=N)N)NC(=O)[C@@H](N)CCCCN)[C@@H](C)CC)C(C)C)CCC/C=C\CCC[C@@](C)(C(=O)N[C@@H](Cc2ccccc2)C(=O)N[C@@H](CC(C)C)C(=O)N[C@@H](CCCNC(=N)N)C(=O)O)NC(=O)[C@H](CCCCN)NC1=O (H-KRIV[S5]RIK[S5]FLR-OH; staple (Z) 5-9) | > 320 µg/mL | 40 µg/mL (≈ 25.3 µM) | > 320 µg/mL | 40 µg/mL (≈ 25.3 µM)
CC[C@H](C)[C@H](NC(=O)[C@H](CCCCN)NC(=O)[C@@H](NC(=O)[C@H](CCCNC(=N)N)NC(=O)[C@]1(C)CCC/C=C/CCC[C@](C)(N)C(=O)N[C@@H](CCCNC(=N)N)C(=O)N[C@@H]([C@@H](C)CC)C(=O)N[C@@H](C(C)C)C(=O)N1)[C@@H](C)CC)C(=O)N[C@@H](Cc1ccccc1)C(=O)N[C@@H](CC(C)C)C(=O)N[C@@H](CCCNC(=N)N)C(=O)O (H-[S5]RIV[S5]RIKIFLR-OH; staple (E) 1-5) | 160 µg/mL (≈ 102 µM) | 10 µg/mL (≈ 6.39 µM) | 160 µg/mL (≈ 102 µM) | 10 µg/mL (≈ 6.39 µM)
CC[C@H](C)[C@@H]1NC(=O)[C@H](CCCNC(=N)N)NC(=O)[C@H](CCCNC(=N)N)NC(=O)[C@H](C(C)C)NC(=O)[C@@](C)(NC(=O)[C@H](CCCNC(=N)N)NC(=O)[C@@H](N)CCCCN)CCC/C=C/CCC[C@@](C)(C(=O)N[C@@H](CC(C)C)C(=O)N[C@@H](CCCNC(=N)N)C(=O)O)NC(=O)[C@H]([C@@H](C)CC)NC(=O)[C@H](CCCCN)NC1=O (H-KR[S5]VRRIKI[S5]LR-OH; staple (E) 3-10) | 80 µg/mL (≈ 50.4 µM) | 20 µg/mL (≈ 12.6 µM) | 80 µg/mL (≈ 50.4 µM) | 10 µg/mL (≈ 6.3 µM)
H-LLGDFFRKSKEKIGKEF-OH | > 320 µg/mL | > 320 µg/mL | > 320 µg/mL | > 320 µg/mL
H-KRIVQRIKKFLR-OH | > 320 µg/mL | 80 µg/mL | > 320 µg/mL | 20 µg/mL
CC[C@H](C)[C@H](NC(=O)[C@H](CCCCN)NC(=O)[C@@H](NC(=O)[C@]1(C)CCC/C=C\CCC[C@](C)(NC(=O)[C@@H](N)CCCCN)C(=O)N[C@@H]([C@@H](C)CC)C(=O)N[C@@H](C(C)C)C(=O)N[C@@H](CCCNC(=N)N)C(=O)N1)[C@@H](C)CC)C(=O)N[C@@H](Cc1ccccc1)C(=O)N[C@@H](CC(C)C)C(=O)N[C@@H](CCCNC(=N)N)C(=O)O (H-K[S5]IVR[S5]IKIFLR-OH; staple (Z) 2-6) | 320 µg/mL (≈ 208 µM) | 10 µg/mL (≈ 6.51 µM) | 320 µg/mL (≈ 208 µM) | 10 µg/mL (≈ 6.51 µM)
H-KRIVRRIKKFLR-OH | > 320 µg/mL | 80 µg/mL | > 320 µg/mL | 160 µg/mL
H-KRIVIRIKKFLR-OH | 160 µg/mL | 80 µg/mL | 320 µg/mL | 40 µg/mL
H-KRIVIRIKIFLR-OH | 40 µg/mL | 20 µg/mL | 80 µg/mL | 20 µg/mL
CC[C@H](C)[C@@H]1NC(=O)[C@H](CCCNC(=N)N)NC(=O)[C@H](CCCNC(=N)N)NC(=O)[C@H](C(C)C)NC(=O)[C@H]([C@@H](C)CC)NC(=O)[C@@](C)(NC(=O)[C@@H](N)CCCCN)CCC/C=C\CCC[C@@](C)(C(=O)N[C@@H](Cc2ccccc2)C(=O)N[C@@H](CC(C)C)C(=O)N[C@@H](CCCNC(=N)N)C(=O)O)NC(=O)[C@H](CCCCN)NC1=O (H-K[S5]IVRRIK[S5]FLR-OH; staple (Z) 2-9) | > 320 µg/mL | 320 µg/mL (≈ 203 µM) | > 320 µg/mL | 160 µg/mL (≈ 101 µM)
H-NLVPRTES-OH | > 320 µg/mL | > 320 µg/mL | > 320 µg/mL | > 320 µg/mL
CC[C@H](C)[C@@H]1NC(=O)[C@H](CCCCN)NC(=O)[C@@](C)(NC(=O)[C@H](CCCNC(=N)N)NC(=O)[C@H](CCCNC(=N)N)NC(=O)[C@@H](NC(=O)[C@@H](NC(=O)[C@H](CCCNC(=N)N)NC(=O)[C@@H](N)CCCCN)[C@@H](C)CC)C(C)C)CCC/C=C\CCC[C@@](C)(C(=O)N[C@@H](CCCNC(=N)N)C(=O)O)NC(=O)[C@H](Cc2ccccc2)NC1=O (H-KRIVRR[S5]KIF[S5]R-OH; staple (Z) 7-11) | > 320 µg/mL | > 320 µg/mL | > 320 µg/mL | > 320 µg/mL
CC[C@H](C)[C@H](NC(=O)[C@H](CCCNC(=N)N)NC(=O)[C@@H](N)CCCCN)C(=O)N[C@H](C(=O)N[C@@H](CCCNC(=N)N)C(=O)N[C@@H](CCCNC(=N)N)C(=O)N[C@H](C(=O)N[C@@]1(C)CCC/C=C\CCC[C@@](C)(C(=O)O)NC(=O)[C@H](CC(C)C)NC(=O)[C@H](Cc2ccccc2)NC(=O)[C@H]([C@@H](C)CC)NC1=O)[C@@H](C)CC)C(C)C (H-KRIVRRI[S5]IFL[S5]-OH; staple (Z) 8-12) | 80 µg/mL (≈ 51.1 µM) | 10 µg/mL (≈ 6.39 µM) | 40 µg/mL (≈ 25.6 µM) | 10 µg/mL (≈ 6.39 µM)
CO/N=C(\C(=O)N[C@@H]1C(=O)N2C(C(=O)O)=C(COC(C)=O)CS[C@H]12)c1csc(N)n1 [CEFOTAXIME] | 2.5 µg/mL (≈ 5.49 µM) | 20 µg/mL (≈ 43.9 µM) | > 320 µg/mL | > 320 µg/mL
H-KRIVKRIKIFLR-OH | 80 µg/mL | 20 µg/mL | > 320 µg/mL | 10 µg/mL
H-KRIVRRIKDFLR-OH | > 320 µg/mL | 320 µg/mL | > 320 µg/mL | 320 µg/mL
CC[C@H](C)[C@H](NC(=O)[C@H](CCCCN)NC(=O)[C@]1(C)CCC/C=C\CCC[C@](C)(NC(=O)[C@H](CCCNC(=N)N)NC(=O)[C@@H](N)CCCCN)C(=O)N[C@@H](C(C)C)C(=O)N[C@@H](CCCNC(=N)N)C(=O)N[C@@H](CCCNC(=N)N)C(=O)N1)C(=O)N[C@@H](Cc1ccccc1)C(=O)N[C@@H](CC(C)C)C(=O)N[C@@H](CCCNC(=N)N)C(=O)O (H-KR[S5]VRR[S5]KIFLR-OH; staple (Z) 3-7) | 160 µg/mL (≈ 98.6 µM) | 320 µg/mL (≈ 197 µM) | 160 µg/mL (≈ 98.6 µM) | 40 µg/mL (≈ 24.7 µM)
H-KRIVQRIKRFLR-OH | > 320 µg/mL | 160 µg/mL | > 320 µg/mL | 80 µg/mL
CC[C@H](C)[C@@H]1NC(=O)[C@H](CCCNC(=N)N)NC(=O)[C@@](C)(N)CCC/C=C\CCC[C@@](C)(C(=O)N[C@H](C(=O)N[C@@H](Cc2ccccc2)C(=O)N[C@@H](CC(C)C)C(=O)N[C@@H](CCCNC(=N)N)C(=O)O)[C@@H](C)CC)NC(=O)[C@H]([C@@H](C)CC)NC(=O)[C@H](CCCNC(=N)N)NC(=O)[C@H](CCCNC(=N)N)NC(=O)[C@H](C(C)C)NC1=O (H-[S5]RIVRRI[S5]IFLR-OH; staple (Z) 1-8) | 320 µg/mL (≈ 201 µM) | 80 µg/mL (≈ 50.2 µM) | 160 µg/mL (≈ 100 µM) | 40 µg/mL (≈ 25.1 µM)
H-KRIVIRIKDFLR-OH | > 320 µg/mL | 160 µg/mL | > 320 µg/mL | 80 µg/mL
